The results in this text go back to patent US8399435B2, “Compounds for the treatment of proliferative disorders” (Synta Pharmaceuticals Corp., priority 2005, dated 2013).

The subject of assay [1] is HL-60 (T-cell leukemia). As to the kind of experiment: In vitro cytotoxicity, MTS assay, HL-60 cells. Format: cell-based. The note with it: Homo sapiens, HL60, Leukemia, 72 hours incubation, concentration to inhibit 50% tumor cell growth. How it is done: (§1) The in vitro cytotoxicity of the compounds of the invention was determined in the following human cell lines: HL-60 ([…]), MES-SA and MES-SA/DX5 (uterine sarcoma). MES-SA is a model of uterine sarcoma, and the cell are sensitive to a number of chemotherapeutic agents including doxorubicin, dactinomycin, mitomycin C, taxol and bleomycin, but resistant to vinblastine and cisplatin. MES-SA/Dx5 was established in the presence of increasing concentrations of doxorubicin. […] All cells were purchased from ATCC.
(§2) The cell lines were maintained in RPMI1640 (GIBCO) supplemented with 10% FCS, 100 units/mL penicillin, 100 ug/ml streptomycin, and 2 mM L-glutamine. Cells were split every third day and diluted to a concentration of 2×10^5 cells/mL one day before the experiment was performed. All experiments were performed on exponentially growing cell cultures. Cell densities were 2.5×10^4 cells/mL in all experiments.
(§3) Compounds of the invention were prepared by dissolving the compound at a concentration of 10 mM in 100% DMSO. Final concentrations 10, 1, 0.1, 0.01 and 0.001 μM were obtained by diluting the stock solution directly into the tissue culture medium. Cells were incubated with varying concentrations of compound 3 for 72 hours and the IC50 was determined by MTS (i.e. […]) assay. IC50 in this context stands for the concentration of compound required to inhibit 50% tumor cell growth.

Assay [2] deals with MES-SA (uterine sarcoma). As to the kind of experiment: In vitro cytotoxicity, MTS assay, MES-SA cells. Format: cell-based. The note with it: Homo sapiens, Uterine Carcinoma, 72 hours incubation. The procedure:
as §1, §2, §3
Background: Tetrazolium assays rely on reduction of a dye to a coloured formazan, in cell work by metabolically active cells.

Assay [3] relates to MES-SA/DX5 (uterine sarcoma, multidrug resistant). As to the kind of experiment: In vitro cytotoxicity, MTS assay, multidrug resistant MES-SA/DX5 cells. Format: cell-based, human. The note with it: for IC50: Homo sapiens, MES/DX5, MDR-1, 72 hours incubation; for Activity against multidrug resistant cell line MES/SA-DX compared with Taxol: comparison with Taxol. The procedure: as §1, §2, §3

Take `COc1ccc(-c2cnsc2-c2cc(OC)c(OC)c(OC)c2)cc1N` [Compound 64, 2-Methoxy-5-[5-(3,4,5-trimethoxy-phenyl)-isothiazol-4-yl]-phenylamine]: the IC50 (as a rule, the concentration needed to halve the response being measured) is 25 nM in assay [1], 42 nM in assay [2] and 33 nM in assay [3]. Moreover, the “Activity against multidrug resistant cell line MES/SA-DX compared with Taxol” value in assay [3] is “much greater activity than Taxol”.
`CC(=O)O[C@H]1C(=O)[C@@]2(C)[C@H]([C@H](OC(=O)c3ccccc3)[C@]3(O)C[C@H](OC(=O)[C@H](O)[C@@H](NC(=O)c4ccccc4)c4ccccc4)C(C)=C1C3(C)C)[C@]1(OC(C)=O)CO[C@@H]1C[C@@H]2O` [Taxol, reference compound]: the figures for the IC50 in assay [1], in assay [2] and in assay [3] were 5 nM, 5 nM and 10000 nM, respectively.
For the compound `COc1ccc(-c2cnsc2-c2cc(OC)c(OC)c(OC)c2)cc1` [Compound 3, 4-(4-methoxy-phenyl)-5-(3,4,5-trimethoxy-phenyl)-isothiazole], the half-maximal inhibitory concentration (IC50) was 474 nM in assay [1], 100 nM in assay [2] and 80 nM in assay [3]. In addition, the “Activity against multidrug resistant cell line MES/SA-DX compared with Taxol” value in assay [3] is reported as “much greater activity than Taxol”.
